Test results taken from article PMC12074337, “Isolation and Characterization of Earthworm Peptides with Neuroprotective Effects in Parkinson’s Disease Models” (Molecules, 2025).
Where two headings read alike, the source gives them in different places. Values belong to the molecule of their own block, whether it stands above or below them. No end group written: not given here.

How the values were obtained:
PINK1^B9 flies [1] = assay: Lifespan of PINK1^B9 flies; format: in vivo, Drosophila; conditions: 1 mM in medium, male flies
Description: The flies were cultured on a conventional fly medium under controlled conditions of 25 ± 1 °C and 60% relative humidity. The traditional medium for cultivating flies was prepared by boiling 90 g of yeast, 240 g of corn flour, 32 g of agar, 189 g of glucose, and 98 g of sucrose, as well as adding a preservative solution consisting of 25 mL of a 10% methyl-4-hydroxybenzoate in distilled water to make a final volume of 3.5 L. The experimental medium was prepared by supplementing formula 4–24 instant Drosophila medium (Carolina Biological Supply Company, Burlington, NC, USA) with a concentration of 0.1 mM peptide. Male individuals of both wild-type (WT) and PINK1^B9 flies were collected for subsequent experiments.
The newly hatched male WT flies and male PINK1^B9 mutants were collected simultaneously, followed by their division into four groups with 4 bottles per group and 40 flies per bottle. The first group was provided with WT flies and fed with formula 4–24 instant drosophila medium. The second group consisted of PINK1^B9 flies and was also fed with formula 4–24 instant drosophila medium. The third group comprised PINK1^B9 flies and received formula 4–24 instant drosophila medium supplemented with 0.1 mM peptide. […] Fresh medium was replaced every 2–3 days, while the number of flies was recorded daily.

PINK1 = biological target: T1, PINK1 (Tribolium castaneum, UniProt D6WMX4); assay: biochemical; format: biochemical; conditions: for PINK1 agonistic rate: 100 μM
T1 construct: made in house
T1 sequence (D6WMX4 6-570): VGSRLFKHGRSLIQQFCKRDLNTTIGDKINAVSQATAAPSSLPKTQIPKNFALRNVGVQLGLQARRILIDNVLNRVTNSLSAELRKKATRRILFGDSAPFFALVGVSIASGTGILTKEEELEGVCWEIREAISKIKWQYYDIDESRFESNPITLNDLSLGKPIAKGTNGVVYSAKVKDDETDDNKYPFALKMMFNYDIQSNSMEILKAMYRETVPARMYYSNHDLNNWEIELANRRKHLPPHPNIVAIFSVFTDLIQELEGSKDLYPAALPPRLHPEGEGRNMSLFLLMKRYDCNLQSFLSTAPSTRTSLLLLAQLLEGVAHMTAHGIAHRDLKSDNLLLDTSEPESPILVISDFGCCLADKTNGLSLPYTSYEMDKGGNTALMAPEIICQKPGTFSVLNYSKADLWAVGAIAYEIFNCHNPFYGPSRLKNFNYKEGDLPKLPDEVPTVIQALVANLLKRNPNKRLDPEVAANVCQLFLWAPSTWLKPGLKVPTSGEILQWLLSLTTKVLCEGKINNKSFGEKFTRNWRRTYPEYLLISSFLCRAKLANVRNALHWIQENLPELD
Description: The earthworms (Lumbricus terrestris) were purchased from Beijing Tongrentang Co., Ltd. (Chengdu, China). They were dried by the supplier through sun-drying and stored at 4 °C. The shelf life is one year. Rasagiline was purchased from Aladdin Biochemical Technology Co., Ltd. (Shanghai, China). Resveratrol was purchased from Pusi Biotechnology Co., Ltd. (Chengdu, China). The SH-SY5Y cells were obtained from the National Collection of Authenticated Cell Cultures (Shanghai, China). […] Dulbecco’s modified Eagle’s medium/Ham’s F-12 (DMEM/F12), fetal bovine serum (FBS), and phosphate-buffered saline (PBS) were purchased from Biological Industries (Kibbutz Beit HaEmek, Israel). Fluorescein diacetate (FDA), propidium iodide (PI) staining and mitochondrial membrane potential test kit (JC-1) were purchased from Beijing Solarbio Science & Technology Co., Ltd. (Beijing, China). Cell Counting Kit-8 (CCK-8) was purchased from Bimake Co., Ltd. (Shanghai, China). PrimeScript RT reagent kit and PerfectStart Green PCR Master Mix were purchased from TransGen Biotech (Beijing, China). […] The Kinase-Lumi™ Luminescent Kinase Assay Kit and ATP Assay Kit were purchased from Beyotime Biotechnology Co., Ltd. (Wuhan, China). The Insect dopamine (DA) ELISA Kit was purchased from Jiangsu Meimian Industrial Co., Ltd. (Yancheng, Jiangsu, China). HPLC-grade methanol was supplied by XLJ (Yunnan, China). Ultrapure water used in the experiment was prepared using a UP water purification (18.25 MΩ) system (Chengdu, China). Unless otherwise specified, chemicals and solvents were purchased from Kelong Chemical Reagents Factory (Chengdu, China).
The PINK1 activity assay was conducted with certain modifications based on the described by. Ubiquitin is a potent substrate for PINK1, which catalyzes the phosphorylation of ubiquitin while consuming ATP [33]. During the reaction, the consumption of ATP is associated with PINK1 activity. […] The enzymatic reaction was conducted on a white 96-well plate, with all samples dissolved in a buffer solution containing 50 mM Tris-HCl (pH = 7.5), 0.1 mM EDTA, 10 mM MgCl2, and 4% 2-hydroxy-1-ethanethiol. Subsequently, 10 μL of peptide sample, 10 μL of PINK1 (6.8 μM), 10 μL of ubiquitin (0.002 pg/mL), and 20 μL of ATP (10 μM) were added to the plate for incubation at a temperature of 25 °C for a duration of ten minutes. In addition, the blank control group replaces the peptide with a buffer solution. The resveratrol was employed as a positive control. The amount of ATP consumed was detected using the Kinase-Lumi™ Luminescent Kinase Assay Kit. The PINK1 agonistic rate was calculated by the following equation:(1) PINK1 agonistic rate (%)=(1−A−B/C−D)×100% where A represents the absorbance of the sample group consisting of the sample, PINK1, ubiquitin, and ATP; B represents the absorbance of the sample control group consisting of the sample, PINK1, and ubiquitin; C represents the absorbance of the control group consisting of PINK1, ubiquitin, and ATP; D represents the absorbance of the blank control group consisting of PINK1 and ubiquitin. The EC50 of each peptide was calculated using GraphPad Prism, version 10.0.2 software.

PINK1^B9 flies [2] = tested on: PINK1^B9 flies; design: method as in PMID 30248358; conditions: cited from earlier work
[3] = tested on: MPP^+-damaged SH-SY5Y cells; assay: CCK-8 viability, neuroprotection of MPP+-damaged SH-SY5Y cells; format: cell-based, human; conditions: 100 μM
Description: The SH-SY5Y human neuroblastoma cell line is extensively employed as a prominent cellular model for PD [31]. The neuroprotective effect of earthworm peptides against the MPP^+-damaged SH-SHY5Y cell model was evaluated using the CCK-8 method. First, the SH-SHY5Y cells were cultured in DMEM/F12 medium supplemented with 10% fetal bovine serum (FBS) and 1% penicillin–streptomycin, and they were maintained at a temperature of 37 °C with a CO2 concentration of 5% in a humidified atmosphere. The SH-SHY5Y cells were seeded into 96-well plates at a density of 1 × 10^4 cells per well, followed by incubation at 37 °C for 24 h. Subsequently, the initial medium was carefully aspirated. The peptide samples were dissolved in DMSO to prepare a high-concentration stock solution and then diluted to the required concentration (10, 25, 50, 100, and 150 μM), prepared using a medium, where they were subsequently introduced into the well and incubated at 37 °C for a duration of 2 h. Then, the cells were treated with MPP^+ (2 mM) per well for an additional 24 h. […] Following the completion of the experiment, the 96-well plate was extracted, and the absorbance was measured at 450nm by the […] GO spectrophotometric plate reader (Thermo Scientific, Waltham, MA, USA). The data were analyzed using GraphPad Prism, version 6.0.

SH-SY5Y cells = conditions: cited from earlier work
Source text: (§1) Earthworm is used in traditional Chinese medicine as an animal-derived remedy. Its protein content and amino acid composition are better than those of fish, cow milk, and soybean meal. […] Moreover, its essential amino acid utilization rate is higher in the body and is more readily assimilated by the human system. Therefore, it is used as a supplement in animal feed and human food. Earthworm has been recorded in the Chinese medical classics of “ ...

inflammatory enzymes = conditions: in vitro and in vivo; cited from earlier work
Source text: as §1

[4] = biological target: PTEN-induced putative kinase 1 (PINK1) (UniProt D6WMX4)
[5] = ubiquitin substrate, 10 μM ATP, pH 7.5 Tris-HCl, 25 °C, 10 min, residual ATP luminescence, mean ± SD (n = 3)

Molecule: Oc1ccc(/C=C/c2cc(O)cc(O)c2)cc1 [Resveratrol, resveratrol]
lifespan extension of PINK1^B9 flies (PINK1^B9 flies [1]): 23.33%
PINK1 agonistic rate (PINK1; [5]): 91.45 ± 0.34%
EC50 (PINK1; ubiquitin substrate, 10 μM ATP, pH 7.5 Tris-HCl, 25 °C, 10 min, residual ATP luminescence, mean ± SD (n = 3), read-out: EC50, PINK1 agonistic activity): 13.8 ± 0.58 µM
lifespan of PINK1^B9 flies (in words) (PINK1^B9 flies [2]; 0.2 mM resveratrol): no significant effect
lifespan of PINK1^B9 flies (in words) (PINK1^B9 flies [2]; 1 mM resveratrol): effective in extending the lifespan

Molecule: ILLIILI [peptide identified from earthworm (Lumbricus terrestris), synthesized by solid phase]
PINK1 agonistic rate (PINK1; [5]): 17.16 ± 0.55%

Molecule: GYSFTTTAER
cell viability (restored to) ([3]; 2 h): 70.08%
EC50 (PINK1): 76.8 ± 1.3 µM
PINK1 agonistic rate (PINK1; [5]): 52.46 ± 0.96%

Molecule: AGFAGDDAPR [peptide identified from earthworm (Lumbricus terrestris), synthesized by solid phase]
PINK1 agonistic rate (PINK1; [5]): 33.45 ± 0.45%

Molecule: RNRRWCIDQQA [lumbricusin, antimicrobial peptide derived from earthworm]
apoptosis and decreased viability induced by MPP^+ (SH-SY5Y cells; SH-SY5Y): inhibits
SH-SY5Y cell proliferation (SH-SY5Y cells): promotes

Molecule: QLICWRRFR [LumA5, lumbricusin analog 5]
expression of lip-induced inflammatory enzymes (inflammatory enzymes): significantly reduce
viability of SH-SY5Y cells (SH-SY5Y cells): improved

Molecule: AVFPSIVGR
cell viability (restored to) ([3]; 2 h pre-incubation, then 2 mM MPP^+ 24 h, 37 °C, CCK-8, absorbance 450 nm, n = 3): 68.77%
EC50 (PINK1): 88.5 ± 0.97 µM
PINK1 agonistic rate (PINK1; [5]): 50.35 ± 0.72%

PINK1 agonistic rate (%) at 100 μM peptide; ATP consumed by purified PINK1 with ubiquitin as substrate (Kinase-Lumi luminescent kinase assay) [4]: 17.2%
Molecule: ILLIILI

EC50 of PINK1 agonistic activity; ATP consumed by purified PINK1 with ubiquitin as substrate (Kinase-Lumi luminescent kinase assay) [4]: 88.5 µM
PINK1 agonistic rate (%) at 100 μM peptide; ATP consumed by purified PINK1 with ubiquitin as substrate (Kinase-Lumi luminescent kinase assay) [4]: 50.4%
Molecule: AVFPSIVGR

EC50 of PINK1 agonistic activity; ATP consumed by purified PINK1 with ubiquitin as substrate (Kinase-Lumi luminescent kinase assay) [4]: 76.8 µM
PINK1 agonistic rate (%) at 100 μM peptide; ATP consumed by purified PINK1 with ubiquitin as substrate (Kinase-Lumi luminescent kinase assay) [4]: 52.5%
Molecule: GYSFTTTAER

PINK1 agonistic rate (%) at 100 μM peptide; ATP consumed by purified PINK1 with ubiquitin as substrate (Kinase-Lumi luminescent kinase assay) [4]: 33.5%
Molecule: AGFAGDDAPR
